According to patent US7214495B2, “Screening method” (Takeda Pharmaceutical Company Limited, priority 2002, dated 2007):

How the values were obtained:
human GPR40 = biological target: T1, human GPR40 (Homo sapiens, UniProt O14842); experiment: EC50 by FLIPR calcium assay in CHO cells stably expressing human GPR40; type: cell-based; details: intracellular calcium, FLIPR, stable CHO line; read-out: EC50 Human GPR40
T1 construct: The resulting fragment (ca. 1 kb) was introduced into vector pAKKO-111, which was used for transfection of CHO cells; expressed in transfected cells
Procedure: (§1) For determination of EC50 values, the CHO cell lines in which human-, mouse- and rat-derived GPR40 was stably expressed were used. Unless otherwise indicated, these CHO cell lines were incubated in α-MEM medium (Invitrogen) supplemented with 10% fetal calf serum (Invitrogen).
(§2) On the day before assay, the cells incubated to almost confluent stage were rinsed with PBS (Invitrogen), then scraped in 0.05% trypsin-EDTA solution (Invitrogen) and recovered by centrifugal operation. The number of the cells obtained was counted and diluted so as to contain 3×10^5 cells/1 mL of the medium. The dilution was dispensed in a Black welled 96-well plate (Coster) in 100 μL/well, followed by incubation overnight in a CO2 incubator. To the thus prepared CHO cells, various test samples were added and the changes in intracellular calcium level in this case were measured using FLIPR (Molecular Device). In order to determine the changes in the intracellular calcium ion level on FLIPR, the cells were pre-treated by the following procedures.
(§3) First, for the purpose of adding a fluorescent dye Fluo-3 AM (DOJIN) to the cells or washing the cells immediately before the FLIPR assay, an assay buffer was prepared. A solution obtained by adding 20 mL of 1M HEPES (pH 7.4) (DOJIN) to 1000 mL of HBSS (Invitrogen) was prepared (hereinafter HBSS/HEPES solution), to which 10 mL of a solution mixture obtained by dissolving 710 mg of Probenecid (Sigma) in 5 mL of 1N NaOH and further adding 5 mL of HBSS/HEPES solution was added. The resulting solution was used as the assay buffer. Next, 50 μg of Fluo-3AM was dissolved in 21 μL of DMSO (Wako) and an equal volume of 20% Pulronic acid (Molecular Probes) was added to and mixed with the solution. The mixture was then added to 10.6 mL of the assay buffer supplemented with 105 μL of fetal calf serum to prepare a fluorescent dye solution. […], the medium for the CHO cells again plated in a Black welled 96-well plate was removed. Immediately thereafter, the fluorescent dye solution was dispensed in 100 μL each/well and the cells were incubated in a CO2 incubator for an hour so that the fluorescent dye was taken up into the cells. The cells after the incubation was washed with the assay buffer described above and set on FLIPR. […] After the pre-treatment above was made, the changes in intracellular calcium level after the addition of various test samples were measured on FLIPR.

human-derived GPR40 = biological target: T2, human-derived GPR40 (Homo sapiens, UniProt O14842); experiment: Intracellular calcium change (FLIPR) in CHO-hGPR40 No. 104, eicosanoids; type: cell-based; details: added in 10^−5 M to 10^−6 M; no response in vector-only control
T2 construct: The DNA fragment encoding human GPR40 was acquired by the following PCR procedures; expressed in transfected cells; host or cells: CHO-K1 (transient, Lipofectamine)
Procedure: The CHO cell line (CHO-hGPR40 No. 104) wherein human GPR40 prepared by publicly known methods using the human GPR40 expression vector prepared in REFERENCE EXAMPLE 1 was expressed was cultured in MEMα medium (Invitrogen) containing 10% fetal calf serum (Invitrogen), unless otherwise indicated. The cells cultured were rinsed with PBS (Invitrogen), scraped in trypsin/EDTA solution (Invitrogen) and recovered by centrifugal operation. The number of the cells obtained was counted and diluted so as to contain 3×10^4 cells/100 μl. The dilution was dispensed in a Black walled 96-well plate (Costar) in 100 μl/well, followed by incubation overnight in a CO2 incubator. The changes in intracellular calcium level in this case were measured using FLIPR (Molecular Device). In order to determine the changes in the intracellular calcium ion level on FLIPR, the cells were pre-treated by the following procedures. First, for the purpose of adding a fluorescent dye Fluo-3 AM (DOJIN) to the cells or washing the cells immediately before the FLIPR assay, an assay buffer was prepared. A solution obtained by adding 20 ml of 1M HEPES (pH 7.4) (DOJIN) to 1000 ml of HBSS (Invitrogen) was prepared (hereinafter HBSS/HEPES solution), to which 10 ml of a solution mixture obtained by dissolving 710 mg of Probenecid (Sigma) in 5 ml of 1N NaOH and further adding 5 ml of HBSS/HEPES solution was added. The resulting solution was used as the assay buffer. Next, 50 μg of Fluo-3AM was dissolved in 21 μl of DMSO (DOJIN) and an equal volume of 20% Pulronic acid (Molecular Probes) was added to and mixed with the solution. The mixture was then added to 10.6 ml of the assay buffer supplemented with 105 μl of fetal calf serum to prepare a fluorescent dye solution. The medium for the CHO cell line cultured was removed. Immediately thereafter, the fluorescent dye solution was dispensed in 100 μl each/well and the cells were incubated in a CO2 incubator for an hour so that the fluorescent dye was taken up into the cells. The cells after the incubation was washed with the assay buffer described above and set on FLIPR. A test sample added to the CHO cell line was prepared using the assay buffer and set on FLIPR at the same time. After the pre-treatment above was made, the changes in intracellular calcium level after the addition of various test samples were measured on FLIPR. […] It was thus noted that GPR40 was responsive to these compounds as well.

Rat GPR40 = biological target: T3, Rat GPR40 (Rattus norvegicus, UniProt Q8K3T4); experiment: EC50 by FLIPR calcium assay in CHO cells stably expressing rat GPR40; type: cell-based; details: intracellular calcium, FLIPR, stable CHO line; read-out: EC50 Rat GPR40
T3 construct: expressed in transfected cells
Procedure: as §1, §2, §3

[1] = system: mouse insulinoma MIN6 cells; experiment: Insulin secretion from MIN6 cells with free fatty acid-BSA mixture (RIA); type: cell-based; details: 300 μM to 1000 μM; fatty acid-BSA 4:1; 11 mM glucose; 90 (or 60) minutes
Procedure: The MIN6 cells were cultured in DMEM (high glucose, Invitrogen) containing 15% FCS (Trace Scientific Ltd.), 55 μM 2-mercaptoethanol, 100 U/ml penicillin and 100 μg/ml streptomycin, unless otherwise indicated. MIN6 cells were plated in a 96-well plate in 10^5 cells/well, followed by incubation at 37° C. for 3 days in a CO2 incubator adjusted to a concentration of 5% CO2. The medium was replaced by RPMI1640 (glucose free, Invitrogen) containing 10% FCS (Trace Scientific Ltd.), 5.5 mM glucose, 100 U/ml penicillin and 100 μg/ml streptomycin, followed by incubation for further 24 hours. After the medium was removed by suction, a solution mixture of free fatty acid-bovine serum albumin (BSA) (in a molar ratio of 4:1) diluted with RPMI1640 (glucose free, Invitrogen) containing 10% FCS (Trace Scientific Ltd.), 11 mM glucose, 100 U/ml penicillin and 100 μg/ml streptomycin was added to the cells, followed by reacting in a CO2 incubator adjusted to a 5% CO2 concentration at 37° C. for 90 minutes (or 60 minutes). After the reaction, the 96-well plate was centrifuged at 1500 rpm for 5 minutes and the culture supernatant was then recovered. The amount of insulin secreted into the culture supernatant was determined by radioimmunoassay (RIA) using the rat insulin RIA system (Amersham Pharmacia).

Mouse GPR40 = biological target: T4, Mouse GPR40 (Mus musculus, UniProt Q76JU9); experiment: EC50 by FLIPR calcium assay in CHO cells stably expressing mouse GPR40; type: cell-based; details: intracellular calcium, FLIPR, stable CHO line; read-out: EC50 Mouse GPR40
T4 construct: expressed in transfected cells
Procedure: as §1, §2, §3

[2] = system: mouse GPR40-GFP fusion protein; experiment: Expression of mouse GPR40-GFP fusion protein in CHO cells after siRNA introduction (enzyme immunoassay); type: cell-based; details: siRNA 2.86 pmols/0.5 μl or 8.57 pmols/1.5 μl, one day
Procedure: Mouse GPR40-GFP fusion protein-expressed CHO cells prepared by publicly known methods were plated in a 96-well plate at a density of 3×10^4/well, followed by incubation for a day. The siRNA (Dharmacon, Inc.) having various sequences, which was prepared according to the report by Elbasir et al. (Nature 411 (6836), 494–498 (2001)) using HVJ Envelope VECTOR KIT GenomONE™ (Ishihara Sangyo Kaisha, LTD.), was introduced into the cells (in a concentration of 2.86 pmols/0.5 μl or 8.57 pmols/1.5 μl), incubation followed for further one day. The expression level of mouse GPR40-GFP was detected by enzyme immunoassay as shown below. After the culture supernatant was discarded and the cells were washed with HBSS (Invitrogen), the cells were immobilized on 0.01% glutaraldehyde (Wako Pure Chemical) for 5 minutes, followed by blocking with 2% BSA-containing PBS (Takara Shuzo). Anti-GFP monoclonal antibody 3E6 (Nippon Gene) diluted to 500-fold was added to the cells. After incubation at room temperature for 2 hours, the cells were washed and HRP-labeled anti-mouse IgG antibody (ICN) diluted to 500-fold was added thereto followed by incubation at room temperature for 2 hours. After washing, TMB Microwell peroxidase substrate (Funakoshi) was added to the cells. After incubation for 30 minutes, sulfuric acid was added to stop the color-forming reaction and absorbance was measured at 450 nm.

[3] = system: p44/42 MAP kinase in MIN6 cells; experiment: MAP kinase activation (western blot) in MIN6 cells; type: cell-based, mouse; details: PD98059 50 μM during preincubation/incubation; 5 minutes
Procedure: The medium used was 4.5 g/l of glucose-containing Dulbecco's Modified Eagle Medium (DMEM, Invitrogen, Inc.) supplemented with 15% fetal calf serum (ThermoTrace, Inc.), 5.5 μM 2-mercaptethanol (Invitrogen, Inc.), 20 mM HEPES pH 7.3, 100 U/ml penicillin and 100 μg/ml streptomycin. The mouse pancreatic β cell line MIN6 cells were plated in a 12-well plate at a density of 2×10^5/well and incubated overnight. On the following morning, the medium was exchanged and incubation was continued overnight. The medium was again exchanged on the following morning. After incubation for 3 hours, preincubation was carried out in 22 mM glucose-containing KRBH for an hour. Various fatty acids were dissolved in KRBH (22 mM glucose) at a density of 10 μM followed by incubation for 2.5 minutes (or 5 minutes). MAPK inhibitor (PD98059) was added to KRBH in a concentration of 50 μM during the preincubation/incubation. After lysis/extraction in a sample buffer (TEFCO, Inc.), the cells were separated on SDS-PAGE and analyzed by western blotting using PhosphoPlus p44/42 MAP kinase (Thr202/Tyr204) Antibody Kit (Cell Signaling Technology, Inc.). […] The activation of MAPK occurred by the fatty acids showing the agonist activity in MIN6 as well as in the GPR40-expressed CHO cells. Thus, it was strongly supported that GPR40 would take part in MIN6 stimulation of fatty acids at least in part.

T2 sequence (O14842 whole entry, the tested form may be a part): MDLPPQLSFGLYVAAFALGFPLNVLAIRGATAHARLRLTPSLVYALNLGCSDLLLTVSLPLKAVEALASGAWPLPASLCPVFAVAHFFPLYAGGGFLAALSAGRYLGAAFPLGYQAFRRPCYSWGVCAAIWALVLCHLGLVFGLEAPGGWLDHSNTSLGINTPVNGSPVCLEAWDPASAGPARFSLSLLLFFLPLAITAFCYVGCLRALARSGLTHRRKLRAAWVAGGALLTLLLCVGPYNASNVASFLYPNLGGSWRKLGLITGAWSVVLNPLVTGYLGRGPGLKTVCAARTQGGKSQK
T1 sequence (O14842 whole entry, the tested form may be a part): as above
T4 sequence (Q76JU9 whole entry): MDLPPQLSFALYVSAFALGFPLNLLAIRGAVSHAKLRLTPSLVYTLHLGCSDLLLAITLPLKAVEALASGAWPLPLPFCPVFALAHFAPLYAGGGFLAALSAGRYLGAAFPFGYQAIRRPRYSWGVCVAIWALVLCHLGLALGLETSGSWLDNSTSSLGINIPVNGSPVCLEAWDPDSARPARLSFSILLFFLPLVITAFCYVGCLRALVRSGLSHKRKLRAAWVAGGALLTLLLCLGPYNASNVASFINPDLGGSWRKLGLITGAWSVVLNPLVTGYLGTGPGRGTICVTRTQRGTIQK
T3 sequence (Q8K3T4 whole entry): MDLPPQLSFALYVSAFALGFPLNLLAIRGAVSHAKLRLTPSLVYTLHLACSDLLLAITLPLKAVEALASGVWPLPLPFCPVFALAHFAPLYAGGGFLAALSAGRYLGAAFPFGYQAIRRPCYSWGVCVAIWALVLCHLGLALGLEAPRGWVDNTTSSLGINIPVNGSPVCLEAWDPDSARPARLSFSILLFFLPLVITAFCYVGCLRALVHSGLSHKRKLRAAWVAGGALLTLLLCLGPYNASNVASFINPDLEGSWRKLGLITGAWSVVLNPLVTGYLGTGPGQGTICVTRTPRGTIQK

Row | Molecule | EC50 (human GPR40) [µM] | response (increase in intracellular calcium level) of GPR40-expressing CHO cell line (human-derived GPR40) | further results
1 | CCCCCCCCCCCCCCCC(=O)O [Palmitic acid (C16), Palmitic acid] | 6.8 ± 0.5 | – | EC50 (Rat GPR40): 6.6 ± 0.4 µM; insulin secretion by MIN6 cells [1]: promoted; EC50 (Mouse GPR40): 4.6 ± 1.2 µM
2 | m40i256: mouse GPR40-specific siRNA; sense strand SEQ ID NO: 36, antisense strand SEQ ID NO: 37 (sense CUUGUUAGCCAUCCGAGGCNN; antisense NNGAACAATCGGTAGGCTCCG; chemistry not given here; one strand is listed 3' to 5') | – | – | expression level of GPR40-GFP (absorbance at 450 nm) [2]: reduction in the expression level
3 | COc1cccc(-c2cc(=O)c3ccccc3o2)c1N [PD98059] | – | – | effect on fatty acid-induced activation of MAPK in MIN6 [3]: almost suppressed

Further lines, with some results ahead:

Row | EC50 (human GPR40) [µM] | response (increase in intracellular calcium level) of GPR40-expressing CHO cell line (human-derived GPR40) | Molecule | further results
4 | 7.7 ± 0.2 | specifically responsive | CCCCCC=CCC=CCC=CCC1OC1CCCC(=O)O (mixture of isomers) [5,6-Epoxyeicosatrienoic acid, (±)5(6)-epoxy-8Z,11Z,14Z-eicosatrienoic acid] | –
5 | 1.1 ± 0.4 | specifically responsive | CCCCCC(O)C(O)CC=CCC=CCC=CCCCC(=O)O (mixture of isomers) [14,15-Dihydroxyeicosatrienoic acid, (±)14,15-dihydroxy-5Z,8Z,11Z-eicosatrienoic acid] | –
6 | 6.1 ± 0.2 | specifically responsive | CCCCCC=CCC=CCC1OC1CC=CCCCC(=O)O (mixture of isomers) [8,9-Epoxyeicosatrienoic acid, (±)8(9)-epoxy-5Z,11Z,14Z-eicosatrienoic acid] | –
7 | 1.4 ± 0.3 | specifically responsive | CCCCCC=CCC1OC1CC=CCC=CCCCC(=O)O (mixture of isomers) [11,12-Epoxyeicosatrienoic acid, (±)11(12)-epoxy-5Z,8Z,14Z-eicosatrienoic acid] | –
8 | – | specifically responsive | CCCCCC1OC1C/C=C\C/C=C\C/C=C\CCCC(=O)O (racemic) [14,15-EET, (±)14(15)-epoxy-5Z,8Z,11Z-eicosatrienoic acid] | –
